One data set deals with HeLa S3. As to the kind of experiment: Cytotoxicity against human HeLaS3 cells assessed as reduction in cell viability up to 1600 uM after 16 hrs by MTT assay. It counts as functional, cell-based.
The nature of data set [1]: (§1) Substrate activity at hexokinase (unknown origin) assessed as compound phosphorylation after 1 days in presence of ATP by 31-P NMR spectroscopic analysis. To be noted: human, 24 h. It counts as ADME.
Data set [2] in a line: Drug uptake in human A549 cells at 30 uM after 7 to 24 hrs under normoxic condition by ICP-MS analysis. It counts as ADME, cell-based. As to conditions: a549, 30 µM.
A short description of data set [3]: Drug uptake in human A549 cells at 30 uM after 7 to 24 hrs under hypoxic condition by ICP-MS analysis. Format: ADME, cell-based. To be noted: a549, 30 µM.
Data set [4] in a line: Drug uptake in human HeLaS3 cells at 30 uM after 7 to 24 hrs under hypoxic condition by ICP-MS analysis. It counts as ADME, cell-based. As to conditions: hela s3, 30 µM.
The subject of the next data set is A549. In words: Cytotoxicity against human A549 cells assessed as reduction in cell viability up to 1600 uM after 16 hrs by MTT assay. Format: functional, cell-based. A general note: Tetrazolium assays rely on reduction of a dye to a coloured formazan, in cell work by metabolically active cells.
The nature of data set [5]: Drug uptake in human HeLaS3 cells at 30 uM after 7 to 24 hrs under normoxic condition by ICP-MS analysis. Format: ADME, cell-based. To be noted: hela s3, 30 µM.
Data set [6] relates to hexokinase. The data set is described as §1. It counts as ADME. To be noted: human, hexokinase (isolated enzyme); read-out: Activity.
The nature of data set [7]: Drug uptake in human HeLaS3 cells assessed per cell at 30 uM after 7 hrs under hypoxic condition by ICP-MS analysis. Format: ADME, cell-based. As to conditions: hela s3, 7 h.
Data set [8] is described as follows: Drug uptake in human HeLaS3 cells assessed per cell at 30 uM after 7 hrs under normoxic condition by ICP-MS analysis. As to conditions: hela s3, 7 h. Format: ADME, cell-based.
For data set [9], the system named is hexokinase. As to the kind of experiment: Substrate activity at hexokinase (unknown origin) assessed as compound phosphorylation after 5 days in presence of ATP by 31-P NMR spectroscopic analysis. Format: ADME. To be noted: human, hexokinase (isolated enzyme); read-out: Activity.

Active and inactive are the calls of the source. No cut-off for these calls is given here.

Take `CC1(C)OB([C@H]2CO[C@H](CO)[C@@H](O)[C@@H]2O)OC1(C)C`: the result in the data set on HeLa S3 and in the data set with A549 was Active. The Activity result in data set [1] is “Not Active”. The Drug uptake result in data set [2], in [3], in data set [4] and in data set [5] was “Active” throughout.
For the compound `c1ccc(B2OC3(CCCCC3)C3(CCCCC3)O2)c(CN2CCNCCNCCNCC2)c1`, the Drug uptake result in data set [2], in [3], in [4] and in data set [5] was “Active” in each case.
In the case of `N[C@@H](Cc1ccc(B(O)O)cc1)C(=O)O`, the result in the data set on HeLa S3 and in the data set with A549 was Active. In addition, the Drug uptake entry in data set [2], in data set [3], in [4] and in [5] was “Active” each time.
As to `OC[C@H]1OC[C@H](B2OC3(CCCCC3)C3(CCCCC3)O2)[C@@H](O)[C@@H]1O`, the outcome in the data set with HeLa S3 and in the data set on A549 was Active. Also, the Drug uptake entry in data set [2], in data set [3], in data set [4] and in data set [5] was “Active” in each case.
Take `CC1CC(C)OB([C@H]2CO[C@H](CO)[C@@H](O)[C@@H]2O)O1` (stereo partly drawn): the result in the data set on HeLa S3 and in the data set with A549 was Active. The Drug uptake entry in [2] and in data set [5] was “Active” in each case.
In the case of `OC[C@H]1OC(O)[C@H](O)[C@@H](O)[C@@H]1O` (stereo partly drawn) [DEXTROSE], the metabolised at 24 h with hexokinase [6] was found to be 97%.
Turning to `OC[C@H]1OC[C@H](B(O)O)[C@@H](O)[C@@H]1O`, the Drug uptake in data set [7] is recorded as 0.4 fmol; in [2] it was “Active”; in [3], “Active”; in [4], “Active”; in data set [5], “Active”; in data set [8], 0.3 fmol. Besides, the result in the data set with HeLa S3 and in the data set on A549 was Active. For the same compound, the outcome in [1] was Active.
Regarding `O=P(O)(O)OC[C@H]1OC(O)[C@H](O)[C@@H](O)[C@@H]1O` (stereo partly drawn), the outcome in [1] was Active. In addition, the metabolised at 120 h in the data set with hexokinase [9] came out at 19%.
For `OC[C@H]1OC[C@H](B2OCCCO2)[C@@H](O)[C@@H]1O`, the result with HeLa S3 and in the data set with A549 was Active. Also, the Drug uptake entry in data set [2] and in data set [5] was “Active” in each case.

(Values after ChEMBL document CHEMBL4261649, “Design and synthesis of boron containing monosaccharides by the hydroboration of d-glucal for use in boron neutron capture therapy (BNCT)” (Bioorg Med Chem, 2018).)
